pIC50: −log10 of the molar value. Values joined by “and” are separate entries in the source; they are usually repeats but may differ in a detail not shown here. Identical values can stand only once.
Test system: KRAS PDC tumor spheroids (HUVEC+MSC), viability
Assay: Anticancer human tumor 254851-301-R-J1-PDC patient-derived colon carcinoma cell line growth inhibition [KRAS2]
Details: for viability, T/C: stronger effect = lower value
Description: Multicellular complex tumor spheroid response to RAS pathway inhibitors in combination with a targeted agents in patient-derived cell lines with oncogenic KRAS variants from multiple cancer types
A high-throughput screen of multi-cell type tumor spheroids was designed to identify active combinations of targeted small molecules and KRAS pathway inhibitors. Complex spheroids include a stromal component modeled by human endothelial cells (HUVEC) and fibroblasts modeled by human mesenchymal stem cells (MSCs). The concentration ranges selected for each drug and investigational agent were based upon clinically achievable concentrations if the clinical Cmax of the agent was known.
Compounds. The drugs and investigational agents: BI-3406 (NSC825286), BAY-293 (NSC824723), batoprotafib (TNO155; NSC825523), sotorasib (AMG 510; NSC818433), MRTX1257 (NSC819558), elimusertib (BAY 1895344; NSC800525), molibresib (GSK525762; NSC774829), temuterkib (LY3214996; NSC803410), venetoclax (NSC766270), alisertib (NSC759677), olaparib (NSC753686), talazoparib (NSC767125), erdafitinib (NSC781556), ipatasertib (NSC767898), cabozantinib (NSC761068), nintedanib (NSC756659), abemaciclib (NSC768073), docetaxel (NSC628503), trametinib (NSC758246), and sapanisertib (NSC764658) were obtained from the National Cancer Institute (NCI) Developmental Therapeutics Program Chemical Repository. The FDA-approved anticancer drug set is available from the Developmental Therapeutics Program. […] The stock solutions were prepared in dimethyl sulfoxide (DMSO, Sigma-Aldrich, St. Louis, MO, cat. D2650) at 800-fold the tested concentration and stored at -70 degrees C prior to their use. All drugs and investigational agents were tested over a range starting from a high concentration at or near the clinical Cmax and decreasing in half-log increments. If the clinical Cmax for an agent had not been determined, the highest concentration tested was 10 microM.
Cell Culture. All cells were maintained in an incubator at 37 degrees C and 5% CO2 with 95% humidity. The PDC lines were cultured according to standard operating procedures established by the NCI PDMR (https://pdmr.cancer.gov/sops/default.htm). Briefly, all PDCs were thawed and cultured in Matrigel-coated flasks prepared with a working solution of 1X Ham's F-12 nutrient mix, without supplementation (Invitrogen, Waltham, MA, cat. 11765054), 100 U/mL penicillin-streptomycin (Invitrogen, cat. 15140122), and 2.5% Matrigel (Corning Inc., Corning, NY, cat. 354248) for the first three passages. All PDCs were cultured in complete DMEM/F-12 media containing advanced DMEM/F-12 (Invitrogen, cat. 12634028), 4.9% defined fetal bovine serum, heat inactivated (HyClone Laboratories Inc., Logan, UT, cat. SH30070.03HI), 389 ng/mL hydrocortisone (Sigma-Aldrich, cat. H4001), 9.7 ng/mL human EGF recombinant protein (Invitrogen, cat. PHG0313), 23.4 microg/mL adenine (Sigma-Aldrich, cat. A2786), 97.3 U/mL penicillin-streptomycin (Invitrogen, cat. 15140122), 1.9 mM L-glutamine (Invitrogen, cat. 25030081), and 9.7 microM Y-27632 dihydrochloride (Tocris Bioscience, Bristol, United Kingdom, cat. 1254). The PDCs were cultured in complete DMEM/F12 media without 9.7 microM Y-27632 dihydrochloride for at least two passages prior to the screen. The established cell line HOP-62 was cultured in RPMI 1640 medium, HEPES (Invitrogen, cat. 22400105) with 10% defined fetal bovine serum (HyClone Laboratories Inc., cat. SH30070.03) and 2 mM L-glutamine (Invitrogen, cat. 25030081). The pooled donor HUVEC were cultured in endothelial cell growth medium 2 (PromoCell, Heidelberg, Germany, cat. C-22011) and the hMSC were cultured in mesenchymal stem cell growth medium 2 (PromoCell, cat. C-28009). For all experiments, HUVEC and hMSC were used at passages </=5, while the malignant cell lines were used at passages </=15. […]

[1] = compound alone, run of 07/12/2021
[2] = compound alone, run of 07/19/2021
[3] = compound alone, run of 07/26/2021
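Further: spheroids exposed to compounds for seven days before readout.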
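Wherever viability, T/C is given: 100% = DMSO vehicle control luminescence of the spheroids.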

Row | Compound | viability, T/C (compound 0.1 µM) | pIC50 [1] | pIC50 [2] | pIC50 [3] | viability, T/C (compound 0.0316 µM) | viability, T/C (compound 0.0001 µM) | viability, T/C (compound 0.000316 µM) | viability, T/C (compound 0.001 µM) | viability, T/C (compound 0.00316 µM) | viability, T/C (compound 0.01 µM) | IC50 (curve of compound) | viability, T/C (compound 0.316 µM) | viability, T/C (compound 1 µM) | viability, T/C (compound 3.16 µM) | viability, T/C (compound 10 µM) | pIC50 (curve of compound)
1 | C=CC(=O)N1CCN(c2nc(=O)n(-c3c(C)ccnc3C(C)C)c3nc(-c4c(O)cccc4F)c(F)cc23)C(C)C1 (stereo not given) | 100% [middle of 17 runs] | < 5.00 | < 5.00 | < 5.00 | – | – | – | – | – | – | – | – | – | – | – | –
2 | C=CC(=O)N1CCN(c2nc(OCC3CCCN3C)nc3c2CCN(c2cccc4cccc(C)c24)C3)CC1CC#N (stereo not given) | 97% [middle of 17 runs] | < 5.50 | < 5.50 | < 5.50 | 98.7% [middle of 17 runs] | – | – | – | – | – | – | – | – | – | – | –
3 | CC(=O)Nc1cccc(-n2c(=O)n(C3CC3)c(=O)c3c(Nc4ccc(I)cc4F)n(C)c(=O)c(C)c32)c1 | – | – | – | – | 3.1% [middle of 5 runs] | 105% [middle of 5 runs] | 96.8% [middle of 5 runs] | 91.9% [middle of 5 runs] | 75.8% [middle of 5 runs] | 26.8% [middle of 5 runs] | 5.78 nM [middle of 5 runs] | – | – | – | – | –
4 | CC(=O)OC12COC1CC(O)C1(C)C(=O)C(O)C3=C(C)C(OC(=O)C(O)C(NC(=O)OC(C)(C)C)c4ccccc4)CC(O)(C(OC(=O)c4ccccc4)C21)C3(C)C (stereo not given) | 68.8% [middle of 5 runs] | – | – | – | 95.8% [middle of 5 runs] | – | – | – | – | 98.5% [middle of 5 runs] | 217 nM [middle of 5 runs] | 42.4% [middle of 5 runs] | 28.1% [middle of 5 runs] | 25.8% [middle of 5 runs] | – | –
5 | CC(C)NCC(C(=O)N1CCN(c2ncnc3c2C(C)CC3O)CC1)c1ccc(Cl)cc1 (stereo not given) | 103% [middle of 5 runs] | – | – | – | 100% and 101% (3×) and 105% | – | – | – | – | – | – | 99.5% [middle of 5 runs] | 104% [middle of 5 runs] | – | 98.9% [middle of 5 runs] | < 5.00
6 | CC(C)n1nc(-c2ccc3oc(N)nc3c2)c2c(N)ncnc21 | 24.5% [middle of 5 runs] | – | – | – | 33.3% [middle of 5 runs] | – | 107% [middle of 5 runs] | 99.5% (2×) and 104% (2×) and 101% | 92.6% [middle of 5 runs] | 63.2% [middle of 5 runs] | 18.9 nM [middle of 4 runs] | – | – | – | – | –
7 | CC1(C)CCC(CN2CCN(c3ccc(C(=O)NS(=O)(=O)c4ccc(NCC5CCOCC5)c([N+](=O)[O-])c4)c(Oc4cnc5[nH]ccc5c4)c3)CC2)=C(c2ccc(Cl)cc2)C1 | 102% [middle of 5 runs] | – | – | – | 103% [middle of 5 runs] | – | – | – | – | – | – | 101% [middle of 5 runs] | 102% [middle of 5 runs] | 96.3% [middle of 5 runs] | 92.8% [middle of 5 runs] | < 5.00
8 | CC1COCCN1c1cc(-c2ccnn2C)c2ccnc(-c3ccn[nH]3)c2n1 (stereo not given) | – | – | – | – | – | – | – | – | – | 99.3% [middle of 5 runs] | – | 47.7% [middle of 5 runs] | 38.6% [middle of 5 runs] | 24.1% [middle of 5 runs] | – | –
9 | CC1OCC2(CCN(c3cnc(Sc4ccnc(N)c4Cl)c(N)n3)CC2)C1N (stereo not given) | 96.8% [middle of 19 runs] | < 5.00 | < 5.00 | < 5.00 and 5.41 | 91.3% and 92.3% and 111% | – | – | – | – | – | – | – | 82.1% [middle of 19 runs] | – | – | < 5.00
10 | CCN1CCN(Cc2ccc(Nc3ncc(F)c(-c4cc(F)c5nc(C)n(C(C)C)c5c4)n3)nc2)CC1 | 83.7% [middle of 5 runs] | – | – | – | 90.3% [middle of 5 runs] | – | – | – | 98.6% [middle of 5 runs] | 101% [middle of 5 runs] | – | 69.6% [middle of 5 runs] | 42% [middle of 5 runs] | – | – | –
11 | CCNC(=O)CC1N=C(c2ccc(Cl)cc2)c2cc(OC)ccc2-n2c(C)nnc21 (stereo not given) | 100% [middle of 5 runs] | – | – | – | 110% [middle of 5 runs] | – | – | – | – | – | – | 90.8% [middle of 5 runs] | 88.9% [middle of 5 runs] | – | – | < 5.00 and 5.30
12 | CN(C)C/C=C/C(=O)Nc1cc2c(Nc3ccc(F)c(Cl)c3)ncnc2cc1O[C@H]1CCOC1 | 81.5% [middle of 5 runs] | – | – | – | 97.6% [middle of 5 runs] | – | 104% [middle of 5 runs] | 108% [middle of 5 runs] | 104% [middle of 5 runs] | 96.8% [middle of 5 runs] | – | – | – | – | – | < 7.00
13 | COC(=O)c1ccc2c(C(=Nc3ccc(N(C)C(=O)CN4CCN(C)CC4)cc3)c3ccccc3)c(O)[nH]c2c1 | 99.1% [middle of 5 runs] | – | – | – | 104% [middle of 5 runs] | – | – | – | – | – | – | 95.2% [middle of 5 runs] | 97.2% [middle of 5 runs] | 86.5% [middle of 5 runs] | 95.5% [middle of 5 runs] | < 5.00
14 | COc1cc(Nc2ncc3c(n2)-c2ccc(Cl)cc2C(c2c(F)cccc2OC)=NC3)ccc1C(=O)O | 41.5% [middle of 5 runs] | – | – | – | 80.7% [middle of 5 runs] | – | – | – | – | – | 89.4 nM [middle of 5 runs] | 32.4% [middle of 5 runs] | 28.5% [middle of 5 runs] | 18.7% [middle of 5 runs] | 10.7% [middle of 5 runs] | –
15 | COc1cc(OC)cc(N(CCNC(C)C)c2ccc3ncc(-c4cnn(C)c4)nc3c2)c1 | 100% [middle of 5 runs] | – | – | – | 107% [middle of 5 runs] | – | – | – | – | – | – | 96.7% [middle of 5 runs] | – | – | – | –
16 | COc1cc2nccc(Oc3ccc(NC(=O)C4(C(=O)Nc5ccc(F)cc5)CC4)cc3)c2cc1OC | 107% [middle of 5 runs] | – | – | – | 103% [middle of 5 runs] | – | – | – | – | – | – | 105% [middle of 5 runs] | 106% [middle of 5 runs] | – | – | < 5.00
17 | Cn1nccc1Nc1nccc(-c2cc3c(s2)C(C)(C)N(CCN2CCOCC2)C3=O)n1 | 98.1% [middle of 5 runs] | – | – | – | 92.9% [middle of 5 runs] | – | – | – | – | – | 3.28 µM [middle of 5 runs] | 102% [middle of 5 runs] | 89.6% [middle of 5 runs] | 51.9% [middle of 5 runs] | 4.24% [middle of 5 runs] | –
18 | Cn1ncnc1[C@H]1c2n[nH]c(=O)c3cc(F)cc(c23)N[C@@H]1c1ccc(F)cc1 | 97.6% [middle of 5 runs] | – | – | – | 101% [middle of 5 runs] | – | 102% [middle of 5 runs] | 101% [middle of 5 runs] | 99.2% [middle of 5 runs] | 98.7% [middle of 5 runs] | – | – | – | – | – | < 7.00
19 | O=C(c1cc(Cc2n[nH]c(=O)c3ccccc23)ccc1F)N1CCN(C(=O)C2CC2)CC1 | 108% [middle of 5 runs] | – | – | – | 107% [middle of 5 runs] | – | – | – | – | – | – | 99.5% [middle of 5 runs] | 99.5% [middle of 5 runs] | 97.4% [middle of 5 runs] | 99.1% [middle of 5 runs] | < 5.00
